Test results published in US12077503B2, “Substituted cyclic amides and their use as herbicides” (FMC CORPORATION, priority 2015, dated 2024).

How the values were obtained:
Type in all cases: in vivo
[1] = system: ryegrass, Italian (Italian ryegrass, Lolium multiflorum); assay: Test A preemergence; settings: Lolium multiflorum, pre-emergence, 240 h, preemergence, 0 to 100 scale where 0 is no effect and 100 is complete control, read-out: Ryegrass, Italian plant response rating; for pest or weed control at 125 g/ha: 125 g ai/ha, visual injury rating, approximately 10 d; for pest or weed control at 500 g/ha: 500 g ai/ha
How it was run: (§1)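 Greenhouse, ~10 d after spray; visual injury vs untreated controls, 0 = no effect, 100 = complete control. Preemergence: directed soil spray over planted seeds. Postemergence: plants 2–10 cm, 1–2 leaf stage. Loam/sand blend. Compound in non-phytotoxic solvent with surfactant.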

[2] = system: pigweed (Amaranthus retroflexus); assay: Test A preemergence; settings: Amaranthus retroflexus, pre-emergence, 240 h, preemergence, 0 to 100 scale where 0 is no effect and 100 is complete control, read-out: Pigweed plant response rating; for pest or weed control at 125 g/ha: 125 g ai/ha, visual injury rating, approximately 10 d; for pest or weed control at 500 g/ha: 500 g ai/ha
Kochia (Kochia scoparia) [3] = assay: Test A preemergence; settings: Bassia scoparia, pre-emergence, 240 h, preemergence, 0 to 100 scale where 0 is no effect and 100 is complete control, read-out: Kochia plant response rating; for pest or weed control at 125 g/ha: 125 g ai/ha, visual injury rating, approximately 10 d; for pest or weed control at 500 g/ha: 500 g ai/ha
How it was run: as §1

[4] = system: barnyardgrass (Echinochloa crus-galli); assay: Test A preemergence; settings: Echinochloa crus-galli, pre-emergence, 240 h, preemergence, 0 to 100 scale where 0 is no effect and 100 is complete control, read-out: Barnyardgrass plant response rating; for pest or weed control at 125 g/ha: 125 g ai/ha, visual injury rating, approximately 10 d; for pest or weed control at 500 g/ha: 500 g ai/ha
How it was run: as §1

[5] = system: giant foxtail (Setaria faberii); assay: Test A preemergence; settings: Setaria faberi, pre-emergence, 240 h, preemergence, 0 to 100 scale where 0 is no effect and 100 is complete control, read-out: Foxtail, Giant plant response rating; for pest or weed control at 125 g/ha: 125 g ai/ha, visual injury rating, approximately 10 d; for pest or weed control at 500 g/ha: 500 g ai/ha
How it was run: as §1

[6] = system: ragweed (common ragweed, Ambrosia elatior); assay: Test A preemergence; settings: Ambrosia artemisiifolia, pre-emergence, 240 h, preemergence, 0 to 100 scale where 0 is no effect and 100 is complete control, read-out: Ragweed plant response rating; for pest or weed control at 125 g/ha: 125 g ai/ha, visual injury rating, approximately 10 d; for pest or weed control at 500 g/ha: 500 g ai/ha
How it was run: as §1

[7] = system: blackgrass (Alopecurus myosuroides); assay: Test A postemergence; settings: Alopecurus myosuroides, post-emergence, 240 h; for pest or weed control at 125 g/ha: 125 g ai/ha, postemergence, visual injury vs untreated controls after approx. 10 d, 0 = no effect, 100 = complete control, read-out: Blackgrass plant response rating (0 to 100 scale); for pest or weed control at 500 g/ha: Postemergence, 500 g ai/ha, visual injury, 0 to 100 scale (0 no effect, 100 complete control), approx. 10 d, read-out: Plant response rating, Blackgrass
How it was run: as §1

[8] = system: ryegrass, Italian (Italian ryegrass, Lolium multiflorum); assay: Test A postemergence; settings: Lolium multiflorum, post-emergence, 240 h; for pest or weed control at 125 g/ha: 125 g ai/ha, postemergence, visual injury vs untreated controls after approx. 10 d, 0 = no effect, 100 = complete control, read-out: Ryegrass, Italian plant response rating (0 to 100 scale); for pest or weed control at 500 g/ha: Postemergence, 500 g ai/ha, visual injury, 0 to 100 scale (0 no effect, 100 complete control), approx. 10 d, read-out: Plant response rating, Ryegrass, Italian
How it was run: as §1

corn (Zea mays) = assay: Test A postemergence; settings: Zea mays, post-emergence, 240 h; for plant injury at 125 g/ha: 125 g ai/ha, postemergence, visual injury vs untreated controls after approx. 10 d, 0 = no effect, 100 = complete control, read-out: Corn plant response rating (0 to 100 scale); for Corn plant response rating (crop injury, 0 = no effect, 100 = complete kill) at 500 g/ha: Postemergence, 500 g ai/ha, visual injury, 0 to 100 scale (0 no effect, 100 complete control), approx. 10 d
How it was run: as §1

[9] = system: pigweed (Amaranthus retroflexus); assay: Test A postemergence; settings: Amaranthus retroflexus, post-emergence, 240 h; for pest or weed control at 125 g/ha: 125 g ai/ha, postemergence, visual injury vs untreated controls after approx. 10 d, 0 = no effect, 100 = complete control, read-out: Pigweed plant response rating (0 to 100 scale); for pest or weed control at 500 g/ha: Postemergence, 500 g ai/ha, visual injury, 0 to 100 scale (0 no effect, 100 complete control), approx. 10 d, read-out: Plant response rating, Pigweed
How it was run: as §1

Kochia (Kochia scoparia) [10] = assay: Test A postemergence; settings: Bassia scoparia, post-emergence, 240 h; for pest or weed control at 125 g/ha: 125 g ai/ha, postemergence, visual injury vs untreated controls after approx. 10 d, 0 = no effect, 100 = complete control, read-out: Kochia plant response rating (0 to 100 scale); for pest or weed control at 500 g/ha: Postemergence, 500 g ai/ha, visual injury, 0 to 100 scale (0 no effect, 100 complete control), approx. 10 d, read-out: Plant response rating, Kochia
How it was run: as §1

[11] = system: barnyardgrass (Echinochloa crus-galli); assay: Test A postemergence; settings: Echinochloa crus-galli, post-emergence, 240 h; for pest or weed control at 125 g/ha: 125 g ai/ha, postemergence, visual injury vs untreated controls after approx. 10 d, 0 = no effect, 100 = complete control, read-out: Barnyardgrass plant response rating (0 to 100 scale); for pest or weed control at 500 g/ha: Postemergence, 500 g ai/ha, visual injury, 0 to 100 scale (0 no effect, 100 complete control), approx. 10 d, read-out: Plant response rating, Barnyardgrass
How it was run: as §1

[12] = system: giant foxtail (Setaria faberii); assay: Test A postemergence; settings: Setaria faberi, post-emergence, 240 h; for pest or weed control at 125 g/ha: 125 g ai/ha, postemergence, visual injury vs untreated controls after approx. 10 d, 0 = no effect, 100 = complete control, read-out: Foxtail, Giant plant response rating (0 to 100 scale); for pest or weed control at 500 g/ha: Postemergence, 500 g ai/ha, visual injury, 0 to 100 scale (0 no effect, 100 complete control), approx. 10 d, read-out: Plant response rating, Foxtail, Giant
How it was run: as §1

[13] = system: Galium (catchweed bedstraw, Galium aparine); assay: Test A postemergence; settings: Galium, post-emergence, 240 h; for pest or weed control at 125 g/ha: 125 g ai/ha, postemergence, visual injury vs untreated controls after approx. 10 d, 0 = no effect, 100 = complete control, read-out: Galium plant response rating (0 to 100 scale); for pest or weed control at 500 g/ha: Postemergence, 500 g ai/ha, visual injury, 0 to 100 scale (0 no effect, 100 complete control), approx. 10 d, read-out: Plant response rating, Galium
How it was run: as §1

[14] = system: ragweed (common ragweed, Ambrosia elatior); assay: Test A postemergence; settings: Ambrosia artemisiifolia, post-emergence, 240 h; for pest or weed control at 125 g/ha: 125 g ai/ha, postemergence, visual injury vs untreated controls after approx. 10 d, 0 = no effect, 100 = complete control, read-out: Ragweed plant response rating (0 to 100 scale); for pest or weed control at 500 g/ha: Postemergence, 500 g ai/ha, visual injury, 0 to 100 scale (0 no effect, 100 complete control), approx. 10 d, read-out: Plant response rating, Ragweed
How it was run: as §1

CCc1ccc([C@H]2CNC(=O)[C@@H]2C(=O)Nc2c(F)cccc2F)cc1 [Compound 1248] showed a pest or weed control at 125 g/ha [1] of 0%, a pest or weed control at 500 g/ha [1] of 0% and a pest or weed control at 125 g/ha [2] of 0%. The pest or weed control at 500 g/ha [2] was 0%, the pest or weed control at 125 g/ha (Kochia (Kochia scoparia) [3]) was 0% and the pest or weed control at 500 g/ha (Kochia (Kochia scoparia) [3]) was 0%. For the same compound, the pest or weed control at 125 g/ha [4] was 70%, the pest or weed control at 500 g/ha [4] was 90% and the pest or weed control at 125 g/ha [5] was 0%. The pest or weed control at 500 g/ha [5] was 50%, the pest or weed control at 125 g/ha [6] was 0% and the pest or weed control at 500 g/ha [6] was 0%. The pest or weed control at 125 g/ha [7] was 0%, the pest or weed control at 500 g/ha [7] was 0% and the pest or weed control at 125 g/ha [8] was 0%. The pest or weed control at 500 g/ha [8] was 0%, the plant injury at 125 g/ha (corn (Zea mays)) was 0% and the Corn plant response rating (crop injury, 0 = no effect, 100 = complete kill) at 500 g/ha (corn (Zea mays)) was 0%. The pest or weed control at 125 g/ha [9] was 0%, the pest or weed control at 500 g/ha [9] was 0% and the pest or weed control at 125 g/ha (Kochia (Kochia scoparia) [10]) was 0%. For the same compound, the pest or weed control at 500 g/ha (Kochia (Kochia scoparia) [10]) was 0%, the pest or weed control at 125 g/ha [11] was 0% and the pest or weed control at 500 g/ha [11] was 50%. For the same compound, the pest or weed control at 125 g/ha [12] was 0%, the pest or weed control at 500 g/ha [12] was 20% and the pest or weed control at 125 g/ha [13] was 0%. The pest or weed control at 500 g/ha [13] was 0%, the pest or weed control at 125 g/ha [14] was 0% and the pest or weed control at 500 g/ha [14] was 0%.
For CN1C[C@H](c2ccc(F)c(C#N)c2)[C@@H](C(=O)Nc2cccc(F)c2F)C1=O [Compound 1255], the pest or weed control at 125 g/ha [1] was 20%, the pest or weed control at 500 g/ha [1] was 40% and the pest or weed control at 125 g/ha [2] was 60%. It also gave a pest or weed control at 500 g/ha [2] of 90%, a pest or weed control at 125 g/ha (Kochia (Kochia scoparia) [3]) of 60% and a pest or weed control at 500 g/ha (Kochia (Kochia scoparia) [3]) of 80%. For the same compound, the pest or weed control at 125 g/ha [4] was 100%, the pest or weed control at 500 g/ha [4] was 100% and the pest or weed control at 125 g/ha [5] was 100%. The pest or weed control at 500 g/ha [5] was 100%, the pest or weed control at 125 g/ha [6] was 20% and the pest or weed control at 500 g/ha [6] was 70%. For the same compound, the pest or weed control at 125 g/ha [7] was 0%, the pest or weed control at 500 g/ha [7] was 60% and the pest or weed control at 125 g/ha [8] was 20%. It also gave a pest or weed control at 500 g/ha [8] of 40%, a plant injury at 125 g/ha (corn (Zea mays)) of 60% and a Corn plant response rating (crop injury, 0 = no effect, 100 = complete kill) at 500 g/ha (corn (Zea mays)) of 90%. For the same compound, the pest or weed control at 125 g/ha [9] was 0%, the pest or weed control at 500 g/ha [9] was 30% and the pest or weed control at 125 g/ha (Kochia (Kochia scoparia) [10]) was 20%. The pest or weed control at 500 g/ha (Kochia (Kochia scoparia) [10]) was 50%, the pest or weed control at 125 g/ha [11] was 90% and the pest or weed control at 500 g/ha [11] was 100%. It also gave a pest or weed control at 125 g/ha [12] of 80%, a pest or weed control at 500 g/ha [12] of 80% and a pest or weed control at 125 g/ha [13] of 40%. It also gave a pest or weed control at 500 g/ha [13] of 60%, a pest or weed control at 125 g/ha [14] of 0% and a pest or weed control at 500 g/ha [14] of 40%.
